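Protocol summary: plate cells (96-well), add compound at 5 concentrations, incubate 48 h, interpolate endpoints linearly. GI50 = concentration required for 50% inhibition of growth. TGI: total growth inhibition.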

Among the test systems are UACC-257 melanoma; UO-31 renal; SR leukemia; SW-620 colon; SF-539 CNS; MALME-3M melanoma; MDA-MB-435; M14 melanoma; SNB-75 CNS; HCT-116 colon.
Common to all, as to assay: NCI anticancer screen, dose series, 48 h

`Cc1ccc(C=C2C(Cl)=C(Cl)C(Cl)=C2Cl)cc1`: the GI50 with UACC-257 melanoma was 1.58 µM; in the experiment with UO-31 renal, 0.757 µM; with SR leukemia it was 0.166 µM; with SW-620 colon it was 0.339 µM; with SF-539 CNS, 1.45 µM; in the experiment on MALME-3M melanoma, 0.933 µM. The GI50 was 0.42 µM in the experiment with MDA-MB-435, 0.561 µM in the experiment with M14 melanoma, 1.16 µM in the experiment with SNB-75 CNS and 0.358 µM in the experiment with HCT-116 colon. Further, the TGI in the experiment on UACC-257 melanoma was determined as 4.32 µM; with UO-31 renal, 2.18 µM; in the experiment on SR leukemia it was 0.444 µM; in the experiment with SW-620 colon, 1.18 µM; in the experiment on SF-539 CNS, 2.81 µM; with MALME-3M melanoma, 2.62 µM. Further, the TGI turned out to be 1.6 µM in the experiment on MDA-MB-435, 1.66 µM in the experiment with M14 melanoma, 2.44 µM in the experiment with SNB-75 CNS and 1.04 µM with HCT-116 colon.
For the compound `C=C1C(=O)O[C@H]2[C@H](OC(C)=O)[C@@H](C)CCCC3(C)OC3CCC3(CO3)[C@H](O)C[C@@H]12` (stereo not given in full), the GI50 in the experiment with UACC-257 melanoma is 17.3 µM; with UO-31 renal, 14.3 µM; in the experiment with SR leukemia it was 0.568 µM; with SW-620 colon, 5.16 µM; with SF-539 CNS, 15.4 µM; with MALME-3M melanoma, 6.01 µM. In addition, the GI50 in the experiment with MDA-MB-435 was 9.24 µM; with M14 melanoma it was 11.1 µM; with SNB-75 CNS, 47 µM; in the experiment with HCT-116 colon it was 3.7 µM. For the same compound, the TGI came out at 49.9 µM in the experiment on UACC-257 melanoma; 45 µM in the experiment on UO-31 renal; 2.26 µM in the experiment with SR leukemia; 19.6 µM in the experiment with SW-620 colon; 37.1 µM in the experiment on SF-539 CNS; 21.6 µM with MALME-3M melanoma. For the same compound, the TGI with MDA-MB-435 was 28.6 µM; in the experiment on M14 melanoma, 23.6 µM; with SNB-75 CNS, over 100 µM; in the experiment with HCT-116 colon it was 13.1 µM.
Regarding `COc1ccc(CCN(CC(=O)N(CC(N)=O)C2CCC[C@@H]2OCc2ccccc2)C(=O)CN(C(=O)CN(CCc2ccc(Cl)cc2)C(=O)CN(C(=O)CN(C)Cc2ccccc2F)[C@H](C)C2CCCCC2)[C@H](C)C2CCCCC2)cc1OC` (stereo not given in full), the GI50 with UACC-257 melanoma was 1.09 µM; with UO-31 renal it was 2.2 µM; in the experiment with SR leukemia, 0.69 µM; in the experiment on SW-620 colon, 2.56 µM; with SF-539 CNS, 1.43 µM; with MALME-3M melanoma it was 1.66 µM. The GI50 was 1.58 µM with MDA-MB-435, 1.13 µM in the experiment on M14 melanoma, 1.09 µM with SNB-75 CNS and 1.6 µM in the experiment with HCT-116 colon. In addition, the TGI with UACC-257 melanoma is 2.68 µM; in the experiment with UO-31 renal, over 50 µM; with SR leukemia, 2.23 µM; in the experiment on SW-620 colon it was over 50 µM; with SF-539 CNS, 4.54 µM; in the experiment with MALME-3M melanoma, 46.2 µM. Also, the TGI in the experiment on MDA-MB-435 was over 50 µM; in the experiment on M14 melanoma, 4.05 µM; in the experiment on SNB-75 CNS, over 50 µM; in the experiment with HCT-116 colon, over 50 µM.
In the case of `CN(C)CC(=O)Nc1ccc2ncnc(Nc3ccc(Oc4cccc(C(F)(F)F)c4)c(Cl)c3)c2c1`, the GI50 in the experiment with UACC-257 melanoma is 2.05 µM; in the experiment with UO-31 renal, 0.951 µM; in the experiment with SR leukemia it was 2.46 µM; with SW-620 colon, 1.66 µM; in the experiment with SF-539 CNS it was 1.73 µM; in the experiment with MALME-3M melanoma, 1.68 µM. Moreover, the GI50 in the experiment with MDA-MB-435 is 1.66 µM; in the experiment with M14 melanoma, 1.46 µM; in the experiment with SNB-75 CNS it was 1.33 µM; in the experiment on HCT-116 colon, 1.65 µM. Moreover, the TGI with UACC-257 melanoma came out at 4.25 µM; in the experiment with UO-31 renal it was 2.32 µM; in the experiment on SR leukemia it was 9.15 µM; with SW-620 colon, 3.3 µM; with SF-539 CNS, 3.18 µM; in the experiment with MALME-3M melanoma, 3.36 µM. Further, the TGI in the experiment with MDA-MB-435 came to 3.14 µM; in the experiment with M14 melanoma it was 2.85 µM; in the experiment on SNB-75 CNS it was 2.82 µM; in the experiment with HCT-116 colon, 3.03 µM.
For the compound `Cn1cc(C2=C(c3cn(-c4ccccc4)c4ccccc34)C(=O)NC2=O)c2ccccc21`, the GI50 was over 25 µM with UACC-257 melanoma; 5.35 µM in the experiment with UO-31 renal; 9.37 µM in the experiment on SR leukemia; 9.68 µM with SW-620 colon; over 25 µM with SF-539 CNS; 14.9 µM in the experiment with MALME-3M melanoma. The GI50 in the experiment on MDA-MB-435 was 6.01 µM; with M14 melanoma, 13 µM; with SNB-75 CNS it was 5.76 µM; in the experiment with HCT-116 colon it was 11 µM. The TGI in the experiment on UACC-257 melanoma, in the experiment on UO-31 renal, in the experiment on SR leukemia, with SW-620 colon, with SF-539 CNS and with MALME-3M melanoma was over 25 µM throughout. Besides, the TGI in the experiment on MDA-MB-435 was over 20.5 µM; in the experiment on M14 melanoma, over 25 µM; in the experiment with SNB-75 CNS, over 25 µM; in the experiment with HCT-116 colon, over 25 µM.
Turning to `CC1(C)N=C(N)N=C(N)N1c1ccc(OCCCNC(=O)Nc2cccc(S(=O)(=O)F)c2)c(Cl)c1`, the GI50 in the experiment on UACC-257 melanoma is over 100 µM; in the experiment with UO-31 renal, over 100 µM; with SR leukemia it was 0.637 µM; with SW-620 colon it was 1.64 µM; in the experiment with SF-539 CNS it was 4.78 µM; in the experiment with MALME-3M melanoma, 42.8 µM. Moreover, the GI50 with MDA-MB-435 is 2.14 µM; in the experiment with M14 melanoma it was 3.26 µM; with SNB-75 CNS, 2.73 µM; in the experiment with HCT-116 colon it was 0.636 µM. The TGI with UACC-257 melanoma, in the experiment with UO-31 renal, in the experiment on SR leukemia, in the experiment with SW-620 colon, with SF-539 CNS and in the experiment on MALME-3M melanoma was over 100 µM in each case. In addition, the TGI in the experiment with MDA-MB-435, in the experiment with M14 melanoma, with SNB-75 CNS and in the experiment with HCT-116 colon was over 100 µM throughout.
Regarding `COC(=O)c1cc2oc(/C=C3/SC(=S)N(N)C3=O)cc2n1Cc1ccccc1`, the GI50 was 4.39 µM in the experiment on UACC-257 melanoma; 3.6 µM in the experiment with UO-31 renal; over 21.4 µM in the experiment on SR leukemia; 13.4 µM with SW-620 colon; 2.3 µM in the experiment with SF-539 CNS; 1.91 µM in the experiment with MALME-3M melanoma. Further, the GI50 with MDA-MB-435 is 6.65 µM; in the experiment with M14 melanoma, 4.33 µM; with SNB-75 CNS it was 0.887 µM; in the experiment with HCT-116 colon, 5.73 µM. The TGI in the experiment with UACC-257 melanoma was 21.5 µM; with UO-31 renal, 10.6 µM; with SR leukemia it was over 100 µM; in the experiment with SW-620 colon, over 29.5 µM; in the experiment on SF-539 CNS, 6.3 µM; in the experiment on MALME-3M melanoma, 17.7 µM. Further, the TGI is over 41.5 µM with MDA-MB-435, 31.2 µM with M14 melanoma, 11.3 µM in the experiment on SNB-75 CNS and 18.9 µM in the experiment with HCT-116 colon.

Source of the values: PubChem BioAssay (NCI).
